Measurements taken from ChEMBL document CHEMBL4308871, “Design, synthesis and in vitro evaluation of stilbene derivatives as novel LSD1 inhibitors for AML therapy” (Bioorg Med Chem, 2018).

Key:
MV4-11 = assay: cells; conditions: Homo sapiens, MV4-11, 192 h
THP-1 [1] = assay: Inhibition of colony formation in human THP1 cells after 14 days by DAPI staining-based microscopic analysis; format: functional, cell-based
THP-1 [2] = assay: Induction of morphological changes in human THP1 cells assessed as blurred cell membrane boundaries after 3 days by H and E staining based assay; format: functional
[3] = molecular target: T1, Amine oxidase [flavin-containing] A (Homo sapiens, UniProt P21397); assay: Inhibition of MAO-A (unknown origin) using (4S)-4,5-dihydro-2-(6-hydroxybenzothiazolyl)-4-thiazolecarboxylic acid as substrate by MAO-Glo assay
T1 sequence (P21397 whole entry): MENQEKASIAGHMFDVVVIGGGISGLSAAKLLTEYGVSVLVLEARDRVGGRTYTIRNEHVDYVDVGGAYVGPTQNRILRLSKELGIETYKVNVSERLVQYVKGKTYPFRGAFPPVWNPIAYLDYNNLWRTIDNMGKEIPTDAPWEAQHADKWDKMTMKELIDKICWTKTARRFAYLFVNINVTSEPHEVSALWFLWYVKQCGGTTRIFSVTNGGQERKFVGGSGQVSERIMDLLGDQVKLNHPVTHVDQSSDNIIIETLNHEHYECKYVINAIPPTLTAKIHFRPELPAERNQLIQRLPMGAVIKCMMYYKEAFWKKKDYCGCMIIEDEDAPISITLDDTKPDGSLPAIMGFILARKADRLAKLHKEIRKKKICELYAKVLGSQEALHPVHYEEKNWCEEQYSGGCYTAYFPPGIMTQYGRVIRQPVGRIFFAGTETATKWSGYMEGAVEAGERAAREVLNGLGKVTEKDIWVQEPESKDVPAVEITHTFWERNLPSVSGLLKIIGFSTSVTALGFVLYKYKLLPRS

THP-1 [4] = assay: cells; conditions: Homo sapiens, THP-1, 192 h
[5] = molecular target: T2, Amine oxidase [flavin-containing] B (Homo sapiens, UniProt P27338)
T2 sequence (P27338 whole entry): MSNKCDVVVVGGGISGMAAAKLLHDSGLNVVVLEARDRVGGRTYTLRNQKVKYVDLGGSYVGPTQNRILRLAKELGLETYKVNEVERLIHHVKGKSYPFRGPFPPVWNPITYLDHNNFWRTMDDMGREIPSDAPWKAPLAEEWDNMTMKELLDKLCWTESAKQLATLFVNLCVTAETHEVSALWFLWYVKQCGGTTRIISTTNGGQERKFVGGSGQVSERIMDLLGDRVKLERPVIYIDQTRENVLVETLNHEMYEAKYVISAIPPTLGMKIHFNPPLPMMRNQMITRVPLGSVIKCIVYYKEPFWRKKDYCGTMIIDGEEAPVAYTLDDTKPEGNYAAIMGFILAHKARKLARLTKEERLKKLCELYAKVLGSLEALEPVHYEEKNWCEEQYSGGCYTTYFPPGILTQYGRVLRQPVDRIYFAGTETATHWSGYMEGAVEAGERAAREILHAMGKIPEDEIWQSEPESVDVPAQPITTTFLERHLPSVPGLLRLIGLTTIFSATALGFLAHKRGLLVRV

THP-1 [6] = assay: Induction of morphological changes in human THP1 cells assessed as chromatin shrinkage after 3 days by H and E staining based assay; format: functional, cell-based
MOLM-13 = assay: cells; conditions: Homo sapiens, MOLM-13, 192 h
[7] = molecular target: Lysine-specific histone demethylase 1A (Homo sapiens, UniProt O60341); assay: Inhibition of full length LSD1 (unknown origin) expressed in Escherichia coli BL21 (DE) using H3K4me2 peptide as substrate after 30 mins by fluorescence assay

| IC50 (MV4-11) [µM] | IC50 [3] [µM] | IC50 (THP-1 [4]) [µM] | IC50 [5] [µM] | IC50 (MOLM-13) [µM] | IC50 [7] [µM] | Structure (SMILES) | inhibition (THP-1 [1]) | Activity (THP-1 [2]) | Activity (THP-1 [6]) |
| --- | --- | --- | --- | --- | --- | --- | --- | --- | --- |
| 7.49 | > 50 | 5.76 | > 50 | 8.34 | – | N/C(=N\O)c1cccc(/C=C/c2ccnc(-c3cc(F)ccc3O)c2)c1 | Dose-dependent effect | Dose-dependent effect | Dose-dependent effect |
| 15.8 | > 50 | 13.7 | > 50 | 9.05 | – | N/C(=N\O)c1cccc(/C=C/c2ccnc(-c3ccccc3O)c2)c1 | – | – | – |
| 4.71 | > 50 | 7.89 | > 50 | 22.6 | – | N/C(=N\O)c1cccc(/C=C/c2ccc(O)c(-c3ccccn3)c2)c1 | – | – | – |
| 10.9 | > 50 | 10.5 | > 50 | 12.5 | 0.301 | Nc1cccc(/C=C/c2ccc(O)c(-c3ccccn3)c2)c1 | – | – | – |

| Structure (SMILES) | IC50 (MV4-11) [µM] | IC50 [3] [µM] | IC50 (THP-1 [4]) [µM] | IC50 [5] [µM] | IC50 (MOLM-13) [µM] | IC50 [7] [µM] | inhibition (THP-1 [1]) | Activity (THP-1 [2]) | Activity (THP-1 [6]) |
| --- | --- | --- | --- | --- | --- | --- | --- | --- | --- |
| N[C@H]1CC[C@H](N[C@@H]2C[C@H]2c2ccccc2)CC1 | – | – | > 20 | – | – | – | – | – | – |
